Bounds are passed on as bounds.

The target of the experiment is T1, acetylcholine muscarinic M1 receptor (Homo sapiens, UniProt P11229).
T1 construct: expressed in transfected cells; host or cells: CHOnfat (CHO cells; also called CHOK1/hM1)
T1 sequence (P11229 1-460): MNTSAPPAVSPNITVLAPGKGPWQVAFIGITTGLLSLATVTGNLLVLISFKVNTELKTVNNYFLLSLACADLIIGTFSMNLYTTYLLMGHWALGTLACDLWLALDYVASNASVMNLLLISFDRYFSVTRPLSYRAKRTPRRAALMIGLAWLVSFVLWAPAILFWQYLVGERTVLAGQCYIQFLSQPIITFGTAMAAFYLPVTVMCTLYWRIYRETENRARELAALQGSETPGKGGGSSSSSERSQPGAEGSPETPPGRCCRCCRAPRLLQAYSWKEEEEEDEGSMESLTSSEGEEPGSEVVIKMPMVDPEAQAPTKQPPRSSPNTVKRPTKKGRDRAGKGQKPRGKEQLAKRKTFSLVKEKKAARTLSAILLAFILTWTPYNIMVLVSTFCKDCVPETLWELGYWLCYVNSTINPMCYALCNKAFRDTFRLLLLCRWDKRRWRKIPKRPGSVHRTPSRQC
Kind of experiment: muscarinic FLIPR assay: potentiation of acetylcholine (EC20)-stimulated intracellular Ca2+ in CHOnfat/hM1 cells. Format: cell-based. The settings on record: 4 min preincubation, then EC20 acetylcholine (3 nM final), read-out: IP Value (inflection point). As for the experimental part: The assay studies the effect of one or several concentrations of test compounds on basal or acetylcholine-stimulated Ca^2+ levels using FLIPR.
Compounds are prepared and subjected to a preincubation period of 4 min. Thereafter, a single EC20 concentration of acetylcholine is added to each well (3 nM final). The intracellular Ca^2+ level of each sample is measured and compared to an acetylcholine control to determine any modulatory activity.
Cells: CHOnfat/hM1, hM2, hM3 or hM4 cells are plated 24 hr before the assay at a density of 18,000 cells/well (100 μL) in a 384 well plate. CHOnfat/hM1 and CHOnfat/hM3 Growth Medium: 90% DMEM (Hi Glucose); 10% HI FBS; 2 mM L-glutamine; 0.1 mM NEAA; Pen-Strep; and 1 mg/ml Geneticin, are added. For M2Gqi5CHOnfat and M4Gqi5CHOnfat cells, an additional 600 ug/ml hygromycin is added.
Equipment: 384 well plate, 120 μL addition plate; 96-well Whatman 2 ml Uniplate Incubator, 37° C., 5% CO2; Skatron EMBLA-384 Plate Washer; Multimek Pipetting System; Genesis Freedom 200 System; Mosquito System; Temo Nanoliter Pipetting System; and FLIPR^384 Fluorometric Imaging Plate Reader System are used.
Buffers. Assay Buffer: Hanks Balanced Salt Solution, with 20 mM Hepes, 2.5 mM Probenecid (Sigma P-8761) first dissolved in 1 N NaOH, 1% Bovine Serum Albumin (Sigma A-9647). Dye Loading Buffer: Assay Buffer plus 1% Fetal Bovine Serum and Fluo-4AM/Pluronic Acid Mixture. 2 mM Fluo-4AM ester stock in DMSO (Molecular Probes F-14202) Concentration of 2 μM in buffer for a final concentration of 1 μM in Assay. 20% Pluronic Acid Solution stock, with concentration of 0.04% in Buffer, 0.02% in Assay.
65 μL of 2 mM Fluo-4AM are mixed with 130 μL of 20% Pluronic Acid. The resulting solution and 650 μL FBS is added to the assay buffer for a total volume of 65 mL. Positive Controls: 4-Br-A23187: 10 mM in DMSO; final concentration 10 μM. Acetylcholine: 10 mM in water, working stock at both 20 μM and 30 μM in assay buffer, final concentration of 10 μM. This is used to check the maximum stimulation of the CHOK1/hM1 cells. 20 μM (2×) acetylcholine is added in the preincubation part of the assay, and the 30 μM (3×) stock is added in the second part. (EC20) Acetylcholine: 10 mM in water, working stock of 9 nM (3×), and final concentration in assay is 3 nM. This is used after the preincubation with test compounds. Addition of the EC20 Acetylcholine to each well with a test compound will ascertain any modulator activity. 24 wells contain 3 nM Acetylcholine alone as a control.
Determining Activity of Putative Compounds:
Screening Plate: Compounds are titrated in 96-well plates (columns 2-11), 100% DMSO, started at a concentration of 15 mM (150× stock concentration), and 3-fold serial dilutions using Genesis Freedom200 System. Four 96-well plates are combined into a 384-well plate using Mosquito Nanolitre Pipetting System by transferring 1 μl of serial diluted compounds to each well, and 1 mM acetylcholine (100× stock concentration) were added as a control. Using Temo, 49 μl assay buffer is added to each well of the 384-well plate right before assay.
In a 96-well Whatman 2 ml Uniplate, 9 nM Acetylcholine (3×) is pipetted into wells corresponding to the screening compounds, and into control wells. The 30 μM acetylcholine control (3×) is added into control wells, and the 3× agonist plate is transferred into a 384 well plate.
Cells are washed three times with 100 μL of buffer, leaving 30 μL of buffer in each well. Using Multimek, 30 μL of Dye Loading Buffer is added into each well and incubated at 37° C., 5% CO2 for up to one hr.
After 60 min, the cells are washed three times with 100 μL of buffer, leaving 30 μL of buffer in each well. The cell plate, screening plate, and agonist addition plates are placed on the platform in the FLIPR and the door closed. A signal test to check background fluorescence and basal fluorescence signal is performed. Laser intensity is adjusted if necessary. […]
In the case of `Cc1ccc(Cc2cc3c(=O)n([C@H]4CCCC[C@@H]4O)cnc3c3ccccc23)cn1` (racemic) [Example 1, rac-3-[trans-2-hydroxycyclohexyl]-6-[(6-methylpyridin-3-yl)methyl]benzo[h]quinazolin-4(3H)-one], the EC50 stood at 51 nM.

As for `Cn1cc(-c2ccc(Cc3cc4c(=O)n([C@H]5CCCC[C@@H]5O)cnc4c4ccccc34)cn2)cn1` (racemic) [Example 5, rac-3-[trans-2-hydroxycyclohexyl]-6-{[6-(1-methyl-1H-pyrazol-4-yl)pyridine-3-yl]methyl}benzo[h]quinazolin-4(3H)-one], the EC50 turned out to be 8 nM. The value for `O=c1c2cc(Cc3ccc(-n4cccn4)nc3)c3ccccc3c2ncn1[C@H]1CCCC[C@@H]1O` (racemic) [Example 6, rac-3-[trans-2-hydroxycyclohexyl]-6-{[6-(1H-pyrazol-1-yl)pyridin-3-yl]methyl}benzo[h]quinazolin-4(3H)-one] was 31 nM; that for `N#Cc1ccc(Cc2cc3c(=O)n([C@H]4CCCC[C@@H]4O)cnc3c3ccccc23)cn1` (racemic) [Example 7, rac-5-({3-[trans-2-hydroxycyclohexyl]-4-oxo-3,4-dihydrobenzo[h]quinazolin-6-yl}methyl)pyridine-2-carbonitrile] was 74 nM. The value for `CS(=O)(=O)c1ccc(Cc2cc3c(=O)n([C@H]4CCCC[C@@H]4O)cnc3c3ccccc23)cn1` (racemic) [Example 8, rac-3-[trans-2-hydroxycyclohexyl]-6-{[6-methylsulfonyl)pyridine-3-yl]methyl}benzo[h]quinazolin-4(3H)-one] was 93 nM. As for `COc1ccc(Cc2cc3c(=O)n([C@H]4CCCC[C@@H]4O)cnc3c3ccccc23)cn1` (racemic) [Example 9, rac-3-[trans-2-hydroxycyclohexyl]-6-[(6-methoxypyridin-3-yl)methyl]benzo[h]quinazolin-4(3H)-one], the EC50 was 73 nM.

As to `CC(=O)O[C@H]1CCCC[C@@H]1n1cnc2c(cc(Cc3ccc(Cl)nc3)c3ccccc32)c1=O` (racemic) [Example 11, trans-2-[6-[(6-chloropyridin-3-yl)methyl]-4-oxobenzo[h]quinazolin-3(4H)-yl]cyclohexyl rac-acetate], the EC50 was determined as 3600 nM.

In the case of `O=c1c2cc(Cc3ccc(CO)nc3)c3ccccc3c2ncn1[C@H]1CCCC[C@@H]1O` (racemic) [Example 15, rac-3-[trans-2-hydroxycyclohexyl]-6-{[6-(hydroxymethyl)pyridine-3-yl]methyl}benzo[h]quinazolin-4(3H)-one], the EC50 was 24 nM. The same measure for `Cn1cc(Cc2cc3c(=O)n([C@H]4CCCC[C@@H]4O)cnc3c3ccccc23)ccc1=O` (racemic) [Example 16, rac-3-[trans-2-hydroxycyclohexyl]-6-[(1-methyl-6-oxo-1,6-dihydropyridin-3-yl)methyl]benzo[h]quinazolin-4(3H)-one]: 84 nM; for `Cc1ccc(Cc2cc3c(=O)n([C@H]4CCCC[C@@H]4O)cnc3c3ccccc23)cn1` [Example 2, 3-[(1S,2S)-2-hydroxycyclohexyl]-6-[(6-methylpyridin-3-yl)methyl]benzo[h]quinazolin-4(3H)-one]: 21 nM. The value for `COc1ccc(Cc2cc3c(=O)n(-c4cc(C)[nH]n4)cnc3c3ccccc23)cc1` [Example 3] was 1800 nM; that for `COc1ccc(Cc2cc3c(=O)n(-c4cccnc4)cnc3c3ccccc23)cc1` [Example 4, 6-(4-methoxybenzyl)-3-pyridin-3-ylbenzo[h]quinazolin-4(3H)-one] was 3500 nM.

On to `O=C1CCCCC1n1cnc2c(cc(Cc3ccc(Cl)nc3)c3ccccc32)c1=O` (stereo not shown) [Example 10, 6-[(6-chloropyridin-3-yl)methyl]-3-(2-oxycyclohexyl)benzo[h]quinazolin-4(3H)-one], for which the EC50 turned out to be 1300 nM. For `CC(=O)N[C@H]1CCCC[C@@H]1n1cnc2c(cc(Cc3ccc(Cl)nc3)c3ccccc32)c1=O` [Example 12, N-{(1S,2S)-2-[6-[(6-chloropyridin-3-yl)methyl]-4-oxobenzo[h]quinazolin-3(4H)-yl]cyclohexyl}acetamide], the EC50 is > 10000 nM. Take `CC(C)c1ccc(Cc2cc3c(=O)n([C@H]4CCCC[C@@H]4O)cnc3c3ccccc23)cn1` [Example 13]: the EC50 turned out to be 21 nM. The value for `CC(C)(O)c1ccc(Cc2cc3c(=O)n([C@H]4CCCC[C@@H]4O)cnc3c3ccccc23)cn1` [Example 14] was 46 nM.

`Cc1ccc(Cc2cc3c(=O)n([C@H]4CCCC[C@@H]4O)cnc3c3ccccc23)c[n+]1[O-]` [Example 17, 3-[(1S,2S)-2-hydroxycyclohexyl]-6-[(6-methyl-1-oxidopyridin-3-yl)methyl]benzo[h]quinazolin-4(3H)-one]: the EC50 is 63 nM.

Take `O=c1c2cc(Cc3ccccn3)c3ccccc3c2ncn1[C@H]1CCCC[C@@H]1O` [Example 18, 3-[(1S,2S)-2-hydroxycyclohexyl]-6-(pyridin-2-ylmethyl)benzo[h]quinazolin-4(3H)-one]: the EC50 is 228 nM. The value for `Cc1nc2c(cc(Cc3ccc(Cl)nc3)c3ccccc32)c(=O)n1[C@H]1CCCC[C@@H]1O` [Example 19, 6-[(6-chloropyridin-3-yl)methyl]-3-[(1S,2S)-2-hydroxycyclohexyl]-2-methylbenzo[h]quinazolin-4(3H)-one] was 1430 nM.

(Values after patent publication US8557832B2, “Aryl methyl benzoquinazolinine M1 receptor positive allosteric modulators” (Merck Sharp & Dohme Corp., priority 2008, dated 2013).)
